System: Jurkat
Test: Antiproliferative activity against human Jurkat T cells after 48 hrs by MTT assay

- IC50: 707 nM
SMILES: COCCOCOc1cc(C)c(-c2ccc3cc(C(=O)O)ccc3c2Cl)cc1C12CC3CC(CC(C3)C1)C2
